Assay results as given in US20180177749A1, “USE OF CYP EXPRESSION TO DIRECT THERAPEUTIC INTERVENTION IN CANCER” (REGENTS OF THE UNIVERSITY OF MINNESOTA, priority 2016, published 2018).
pIC50: −log10 of the molar value. Where two headings read alike, the source gives them in different places.

Columns and labels:
T47D = assay: MTT cell proliferation assay, T47D; format: cell-based, human
Method: (§1) The human breast cancer cell lines MCF-7, T47D, and MDA-MB-231 described above were grown in Minimal Essential Medium (MCF-7), RPMI 1640 with insulin (0.2 U/mL) and 1 mM Na pyruvate (T47D) or DMEM containing 10% fetal bovine serum (FBS) (MDA-MB-231), which was defined as complete medium (CM). Cells were grown at 37° C. in a 5% CO2 incubator. […] MTT was then added (5 mg/ml), and after 2 h of incubation, the plates were centrifuged. The supernatant was removed; DMSO was added, and the absorbance was read at 540 nm with a BioTek 96-well plate reader.

MDA-MB-231 cells = assay: JC-1 mitochondrial membrane potential staining, MDA-MB-231; format: cell-based, human; settings: HBB 20 μM 4 hours, (±)-14,15-EET 1 μM
Method: Cells were grown in chamber slides at 37° C. with 5% CO2 and treated with DMSO or HBB for 4 hours before JC-1 dye was added for the MCF-7 or MDA-MB-231 cell line. […] Images of red fluorescence (590 nm) and green fluorescence (530 nm) were acquired using an Olympus 1X70 microscope fitted with an Olympus DP70 digital camera (Olympus, Tokyo, Japan).

[1] = MTD for daily dosing by two-fold dose escalation in tumor-bearing mice; format: in vivo
MCF-7 xenograft = test system: MCF-7 xenograft
Method: 17-β-estradiol (E2) was given in drinking water at 1 μM beginning the day of tumor implantation. […] Tumors were collected from each mouse after sacrifice and endpoint tumor weights were measured.
N=20 mice per arm for each study; error bars represent SEM.
In the HBB dose optimization model, mammary fat pad injection was performed with the MCF-7 cell line as described above, and tumors were allowed to grow until an average tumor volume of 50 mm^3. Mice were randomized, and tumor growth was monitored. Estradiol (1 μM) was present in the drinking water as above. Cremophor was administered weekly in the vehicle and HBB groups so that paclitaxel could be used in subsequent chemotherapy synergy studies (unpublished data). Mice were dosed at 6 mg/kg/day ip 4 days of 7 with no more than 2 consecutive days dosing and weighed daily. […] Tumors were harvested at the endpoint of the study following sacrifice by isoflurane anesthesia followed by cervical dislocation. Organs were harvested for histopathological assay of end organ toxicity.

CYP2C8 = biological target: T1, CYP2C8 (Homo sapiens, UniProt P10632); assay: Recombinant microsomal CYP-mediated EET biosynthesis (CYP2C8 Supersomes); format: biochemical; design: host or cells: insect cells (microsomes)
T1 sequence (P10632 1-490): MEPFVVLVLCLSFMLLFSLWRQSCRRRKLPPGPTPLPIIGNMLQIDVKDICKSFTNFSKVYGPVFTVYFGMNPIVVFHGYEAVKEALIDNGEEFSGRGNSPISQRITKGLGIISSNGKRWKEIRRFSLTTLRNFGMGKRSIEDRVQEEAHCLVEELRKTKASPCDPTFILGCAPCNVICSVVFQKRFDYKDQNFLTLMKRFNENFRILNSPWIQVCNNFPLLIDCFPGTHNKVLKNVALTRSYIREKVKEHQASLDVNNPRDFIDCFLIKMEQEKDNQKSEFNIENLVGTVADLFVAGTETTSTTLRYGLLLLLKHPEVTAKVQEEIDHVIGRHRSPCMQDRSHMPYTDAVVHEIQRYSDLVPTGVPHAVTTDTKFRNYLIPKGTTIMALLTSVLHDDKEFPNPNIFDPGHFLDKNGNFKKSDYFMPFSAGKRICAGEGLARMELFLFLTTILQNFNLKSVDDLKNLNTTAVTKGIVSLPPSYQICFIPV
Method: Samples were submitted to liquid chromatography-electrospray ionization/multiple reaction monitoring/mass spectrometry (LC-ESI/MRM/MS) analysis in a Thermo Electron Quantum Discovery Max triple quadrupole mass spectrometer (Thermo Finnigan, San Jose, Calif.) coupled with an Agilent 1100 HPLC (Santa Clara, Calif.), using argon as the collision gas. Negative ion monitoring was performed at the following diagnostic product ions: 319 m/z→155 m/z for 8,9-EET; 319 m/z→179 m/z for 11,12-EET; 319 m/z→219 m/z for 14,15-EET; 339 m/z→163 m/z for 8,9-[13C20]EET; 339 m/z→233 m/z for 11,12-[13C20]EET; and 339 m/z→259 m/z for 14,15-[^13C20]EET. Base-line resolution of EET regioisomers was achieved on a Phenomenex Luna C18 (2) reverse phase capillary column (250×0.5 mm, 5-μm particles) using the following mobile phase combinations: isocratic 5% B for 5 min, gradient 5-70% B for 5 min, hold at 70% for 30 min and then 95% for 10 min; A: 0.01% acetic acid in water, B: 0.01% acetic acid in acetonitrile; […] flow rate. A standard curve was obtained by linear regression of the peak area ratio of authentic EET regioisomers against internal standards. The amount of EETs in samples was calculated according to the standard curve. The (±)-5,6-EET regioisomer was not measured because it undergoes rapid internal degradation.
CYP3A4 or 2C8 Supersomes™ (BD Biosciences) were incubated at 37° C. for 30 min in the presence of AA (5 μM) in […] Tris-HCl, pH 7.4, containing 1 mm EDTA and 1 mm NADPH. Reactions were terminated by adding methylene chloride (0.5 ml). Samples were centrifuged at 3,000 rpm for 10 min and 150 μl of the organic phases were evaporated under nitrogen. […] Reaction extracts were chromatographed under the conditions described above, and ions of 319 m/z, corresponding to AA monooxygenation products, were selectively monitored in negative mode. Concentrations of EETs generated by CYP Supersomes™ were calculated by linear regression against standard curve generated with EET standards.

MDA-MB-231 = assay: MTT cell proliferation assay, MDA-MB-231; format: cell-based, human
Method: as §1

Compound: CCCCCCNC(=N)NC(=N)NCc1ccccc1 [HBB, N1-hexyl-N5-benzyl-biguanide]
- growth inhibition abrogated by concurrent (±)-14,15-EET (T47D; (±)-14,15-EET 1 μM, 24 hours): abrogated most of the inhibition
- pIC50 (T47D; Homo sapiens, ER+[PR+]): 4.60
- mitochondrial membrane potential (ΔΨm), JC-1 (MDA-MB-231 cells): caused mitochondrial depolarization
- lethality ([1]; 8 mg/kg/day ip, cohorts of 5 tumor-bearing mice): animal deaths within 3 days
- MTD ([1]; athymic nude (Foxn1nu/Foxn1nu), mouse, in vivo, ip): 4 mg/kg/day
- end point tumor weights lower than control (MCF-7 xenograft; 4 mg/kg/day ip): 34%
- tumor growth (MCF-7 xenograft; 4 mg/kg/day ip): slower growth
- end point tumor weight (mean±SEM) (MCF-7 xenograft; 4 mg/kg/day ip, n=19): 220 ± 35 mg
- tumor growth (MCF-7 xenograft; 6 mg/kg ip 4 of 7 days (24 mg/kg/week), from 50 mm^3): significant reduction of tumor growth
- end point tumor weights lower than PBS group (MCF-7 xenograft; 24 mg/kg/week ip): 48%
- end point tumor weight (mean±SEM) (MCF-7 xenograft; 24 mg/kg/week ip, n=13): 127 ± 16 mg
- weight decline vs. control (MCF-7 xenograft; mouse, in vivo, ip, 6 mg/kg/day): > 5%
- pIC50 (CYP2C8; read-out: IC50, CYP2C8 synthesis of (±)-8,9-EET): 4.19
- pIC50 (CYP2C8; read-out: IC50, CYP2C8 synthesis of (±)-11,12-EET): 4.30
- pIC50 (CYP2C8; read-out: IC50, CYP2C8 synthesis of (±)-14,15-EET): 4.35
- pIC50 (MDA-MB-231; Homo sapiens, MDA-MB-231, Triple negative): 4.69
- growth inhibition abrogated by concurrent (±)-14,15-EET (MDA-MB-231; MDA-MB-231, (±)-14,15-EET 1 μM, 24 hours): no dependence on (±)-14,15-EET
